Source: PubChem BioAssay (NCI)
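Five compound concentrations were applied to cells in 96-well plates for 48 hours; endpoints were derived by simple linear interpolation of the resulting dose-response curve. GI50 is the concentration that inhibits growth by half. The concentration for full growth arrest is given as TGI.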

System: SK-OV-3 ovarian
Assay: NCI-60 cell line screen, 48 h

Row | Structure (SMILES) | TGI [µM] | GI50 [µM]
1 | CCCCCCCCCCCOc1ccc(C(=O)C(=O)c2ccc(OCCCCCCCCCCC)c(OCCCCCCCCCCC)c2)cc1OCCCCCCCCCCC | > 100 | –
2 | Cn1cnc([N+](=O)[O-])c1Sc1nnc(-c2cccnc2)n1C | > 100 | –
3 | CCOC(=O)C1=C(C)NC(=S)NC1c1ccccc1 (configuration not stated) | > 100 | –
4 | COC1=CC(=O)c2nc(-c3ccncc3)[nH]c2C1=O | > 100 | > 100
5 | O=C(/C=C/c1ccccc1)NC1C=Nc2ccc(Cl)cc2NC1=O (configuration not stated) | > 100 | –
6 | COC1CCC2C(NS(=O)(=O)c3ccc(C)cc3)CCCC2O1 (configuration not stated) (tested in a mixture with another compound) | > 34.5 | –
7 | CC(C)C/C(CC(=O)CCC(=O)Nc1ccccc1[N+](=O)[O-])=N\NC(=O)c1cc2ccccc2cc1O | > 100 | –
8 | O=C1/C(=C/c2cccc([N+](=O)[O-])c2)COc2ccc(O)cc21 | 15.9 | 4.64
9 | O=C(O)c1ccccc1[Se][Se]c1ccccc1C(=O)O | > 100 | –
10 | O=C(O)CCc1coc2ccc(O)cc12 | > 100 | –
11 | Clc1cc2nsnc2c(Cl)n1 | > 100 | –
12 | COc1cc(Cc2cnc(/N=C3\C(=O)N(CN4CCN(c5c(F)cc6c(=O)c(C(=O)O)cn(C7CC7)c6c5OC)CC4C)c4ccc(F)cc43)nc2N)cc(OC)c1OC (configuration not stated) | 43.1 | 15
13 | Cc1nc2ccccc2c(=O)n1-c1ccccc1I | > 100 | –
14 | CN1C(=O)C(C)(C)C2(SC(C)(C)C2(C)C)N(C)C1=S (configuration not stated) | > 100 | –
15 | CC(=O)NNc1nc(C)c(C(=O)NNC(=O)C(=O)Nc2ccc(Cl)cc2)s1 | > 100 | –
16 | CC1(C)CCc2c(c3c(c4c(=O)c(O)c(-c5ccc(O)cc5)oc24)OC(C)(C)CC3)O1 | 53.4 | 23.2
17 | CN/N=C(/Cc1occc(=O)c1O)C(=O)Nc1ccccc1C | > 100 | –
18 | Cc1coc2c1CC1(C)C(CCC(O)C1C)C2 (configuration not stated) | > 100 | –
19 | N#CCCN(CCC#N)c1ccc(/C=C2\N=C(c3cc([N+](=O)[O-])ccc3Cl)OC2=O)cc1 | > 100 | –
20 | CSc1nc2c(c(=O)[nH]1)N=C1c3ccccc3C(=O)C1C(c1ccccc1)N2 (configuration not stated) | > 100 | 7.65
21 | CC1=C(C(=O)Nc2ccc(Cl)c(Cl)c2)C(c2cccc(Oc3ccccc3)c2)NC(=S)N1 (configuration not stated) | 16.3 | 8.1
22 | Cc1cc(C)nc(NS(=O)(=O)c2ccc(NC(=O)c3ccc(Cl)c4c(Nc5ccc(S(=O)(=O)Nc6nc(C)cc(C)n6)cc5)c5ccccc5nc34)cc2)n1 | 76.5 | –
23 | N#CC(c1ccc(Cl)cc1)c1cccc(C(C#N)c2ccc(Cl)cc2)n1 (configuration not stated) | > 100 | –
24 | Cc1ccc(NC2=C(Cl)C(=O)N(Cc3ccccc3)C2=O)cc1O | > 100 | 55.2
25 | C=C1C(=O)C23CC1CCC2C12CO[C@@H]4OCC(C)(CC[C@@H]1OC3=O)C42 (some centres not stated) | 40.1 | –

System: M14 melanoma
Assay: NCI-60 cell line screen, 48 h

Row | Structure (SMILES) | TGI [µM] | GI50 [µM]
26 | CCN(CCO)CC1CCCC2CCCCC21 (configuration not stated) | > 100 | –
27 | CC[C@@]1(O)C[C@H](OC2CC(N(C)C)C(O)C(C)O2)c2c(O)c3c(c(O)c2[C@H]1OC1CC(N(C)C)C(O)C(C)O1)C(=O)c1cccc(O)c1C3=O (some centres not stated) | – | < 0.01
28 | COC1(OC)CCC2C1C1CCC(OC)(OC)C21 (configuration not stated) | > 50 | –
29 | NNC(=O)Nc1cccnc1 | > 100 | –
30 | CC/C=C\CCC/C=C1/C(=O)C=C[C@@H]1C/C=C\CCCC(=O)OC | 10.1 | 3.17
31 | COc1ccc(-c2nc3sccn3c2/C(N)=N/C(=N)N)cc1OC | 79.5 | 29.4
32 | CCCCCCCCCCCOc1ccc(C(=O)C(=O)c2ccc(OCCCCCCCCCCC)c(OCCCCCCCCCCC)c2)cc1OCCCCCCCCCCC | > 100 | –
33 | Cn1cnc([N+](=O)[O-])c1Sc1nnc(-c2cccnc2)n1C | 35.4 | –
34 | CCOC(=O)C1=C(C)NC(=S)NC1c1ccccc1 (configuration not stated) | > 100 | –
35 | COC1=CC(=O)c2nc(-c3ccncc3)[nH]c2C1=O | > 100 | > 100
36 | O=C(/C=C/c1ccccc1)NC1C=Nc2ccc(Cl)cc2NC1=O (configuration not stated) | 65.6 | –
37 | COC1CCC2C(NS(=O)(=O)c3ccc(C)cc3)CCCC2O1 (configuration not stated) (tested in a mixture with another compound) | > 34.5 | –
38 | CC(C)C/C(CC(=O)CCC(=O)Nc1ccccc1[N+](=O)[O-])=N\NC(=O)c1cc2ccccc2cc1O | > 100 | –
39 | O=C1/C(=C/c2cccc([N+](=O)[O-])c2)COc2ccc(O)cc21 | 3.54 | 1.72
40 | O=C(O)c1ccccc1[Se][Se]c1ccccc1C(=O)O | > 100 | –
41 | COc1cc(CNc2cnc3cc(N)cc(N)c3n2)cc(OC)c1 | 33.8 | 18.1
42 | O=C(O)CCc1coc2ccc(O)cc12 | > 100 | –
43 | Clc1cc2nsnc2c(Cl)n1 | 29 | –
44 | N#CC1C(C#N)C2(c3ccccc3)C(c3ccccc3)=NN(c3ccccc3)CC12 (configuration not stated) | > 100 | –

Row | Structure (SMILES) | TGI [µM] | GI50 [µM]
45 | COc1cc(Cc2cnc(/N=C3\C(=O)N(CN4CCN(c5c(F)cc6c(=O)c(C(=O)O)cn(C7CC7)c6c5OC)CC4C)c4ccc(F)cc43)nc2N)cc(OC)c1OC (configuration not stated) | 22 | 10.3
46 | Cc1cccc2c(=O)cc(-c3ccccc3)[nH]c12 | > 100 | –
47 | CCCCOC(=O)C1OC(O[C@H]2CCC3(C)C(CCC4(C)C3CC=C3C5CC(C)(C)CCC5(C(=O)O)CC[C@]34C)C2(C)C)C(OC2OC(CO)C(O)C(O)C2O)C(OC2OC(CO)C(O)C(O)C2O)C1O (some centres not stated) | 32.7 | 17.8
48 | Cc1nc2ccccc2c(=O)n1-c1ccccc1I | > 100 | –
49 | CN1C(=O)C(C)(C)C2(SC(C)(C)C2(C)C)N(C)C1=S (configuration not stated) | > 100 | –
50 | CC(=O)NNc1nc(C)c(C(=O)NNC(=O)C(=O)Nc2ccc(Cl)cc2)s1 | > 100 | –
51 | CC1(C)CCc2c(c3c(c4c(=O)c(O)c(-c5ccc(O)cc5)oc24)OC(C)(C)CC3)O1 | > 100 | > 100
52 | CN/N=C(/Cc1occc(=O)c1O)C(=O)Nc1ccccc1C | > 100 | –
53 | Cc1coc2c1CC1(C)C(CCC(O)C1C)C2 (configuration not stated) | > 100 | –
54 | CC1=C(C(=O)NCc2ccccc2)C(/C=C/c2ccccc2)C(C(=O)NCc2ccccc2)=C(C)N1 | > 100 | –
55 | N#CCCN(CCC#N)c1ccc(/C=C2\N=C(c3cc([N+](=O)[O-])ccc3Cl)OC2=O)cc1 | > 100 | –
56 | CSc1nc2c(c(=O)[nH]1)N=C1c3ccccc3C(=O)C1C(c1ccccc1)N2 (configuration not stated) | > 100 | 3.29
57 | CC1=C(C(=O)Nc2ccc(Cl)c(Cl)c2)C(c2cccc(Oc3ccccc3)c2)NC(=S)N1 (configuration not stated) | 20.1 | 9.21
58 | Cc1cc(C)nc(NS(=O)(=O)c2ccc(NC(=O)c3ccc(Cl)c4c(Nc5ccc(S(=O)(=O)Nc6nc(C)cc(C)n6)cc5)c5ccccc5nc34)cc2)n1 | 6.95 | –
59 | N#CC(c1ccc(Cl)cc1)c1cccc(C(C#N)c2ccc(Cl)cc2)n1 (configuration not stated) | > 100 | –
60 | O=C1/C(=C/c2ccccc2)CN(C(=O)C(Cl)(Cl)Cl)C/C1=C\c1ccccc1 | 2.62 | –
61 | Cc1ccc(NC2=C(Cl)C(=O)N(Cc3ccccc3)C2=O)cc1O | > 100 | 51.4
62 | C=C1C(=O)C23CC1CCC2C12CO[C@@H]4OCC(C)(CC[C@@H]1OC3=O)C42 (some centres not stated) | 2.88 | –

System: 786-0 renal
Assay: NCI-60 cell line screen, 48 h

Row | Structure (SMILES) | TGI [µM] | GI50 [µM]
63 | CCN(CCO)CC1CCCC2CCCCC21 (configuration not stated) | > 100 | –
64 | CC[C@@]1(O)C[C@H](OC2CC(N(C)C)C(O)C(C)O2)c2c(O)c3c(c(O)c2[C@H]1OC1CC(N(C)C)C(O)C(C)O1)C(=O)c1cccc(O)c1C3=O (some centres not stated) | – | < 0.01
65 | COC1(OC)CCC2C1C1CCC(OC)(OC)C21 (configuration not stated) | > 50 | –
66 | NNC(=O)Nc1cccnc1 | > 100 | –
67 | CC/C=C\CCC/C=C1/C(=O)C=C[C@@H]1C/C=C\CCCC(=O)OC | 11.4 | 3.74
68 | COc1ccc(-c2nc3sccn3c2/C(N)=N/C(=N)N)cc1OC | > 100 | 32.9
69 | CCCCCCCCCCCOc1ccc(C(=O)C(=O)c2ccc(OCCCCCCCCCCC)c(OCCCCCCCCCCC)c2)cc1OCCCCCCCCCCC | > 100 | –
70 | Cn1cnc([N+](=O)[O-])c1Sc1nnc(-c2cccnc2)n1C | 41.6 | –
71 | CCOC(=O)C1=C(C)NC(=S)NC1c1ccccc1 (configuration not stated) | > 100 | –
72 | COC1=CC(=O)c2nc(-c3ccncc3)[nH]c2C1=O | > 100 | > 100
73 | O=C(/C=C/c1ccccc1)NC1C=Nc2ccc(Cl)cc2NC1=O (configuration not stated) | > 100 | –
74 | COC1CCC2C(NS(=O)(=O)c3ccc(C)cc3)CCCC2O1 (configuration not stated) (tested in a mixture with another compound) | > 34.5 | –
75 | CC(C)C/C(CC(=O)CCC(=O)Nc1ccccc1[N+](=O)[O-])=N\NC(=O)c1cc2ccccc2cc1O | > 100 | –
76 | O=C1/C(=C/c2cccc([N+](=O)[O-])c2)COc2ccc(O)cc21 | 3.83 | 1.85
77 | O=C(O)c1ccccc1[Se][Se]c1ccccc1C(=O)O | > 100 | –
78 | COc1cc(CNc2cnc3cc(N)cc(N)c3n2)cc(OC)c1 | 30 | 15.4
79 | O=C(O)CCc1coc2ccc(O)cc12 | > 100 | –
80 | Clc1cc2nsnc2c(Cl)n1 | 31.2 | –
81 | N#CC1C(C#N)C2(c3ccccc3)C(c3ccccc3)=NN(c3ccccc3)CC12 (configuration not stated) | > 100 | –
82 | COc1cc(Cc2cnc(/N=C3\C(=O)N(CN4CCN(c5c(F)cc6c(=O)c(C(=O)O)cn(C7CC7)c6c5OC)CC4C)c4ccc(F)cc43)nc2N)cc(OC)c1OC (configuration not stated) | 23.1 | 11.1
83 | Cc1cccc2c(=O)cc(-c3ccccc3)[nH]c12 | > 100 | –
